Measured values: US10183039B2, “Methods for the production of collagen IV” (Vanderbilt University, priority 2013, dated 2019)

Assays:
human peroxidasin [1] = molecular target: T1, human peroxidasin (Homo sapiens, UniProt Q92626); conditions: compared with reagent-grade PBS (FIG. 8D)
Procedure: (§1) (FIG. 8A) Matrix pellets isolated from KI-treated PFHR9 cell culture were extensively washed into 10 mM phosphate buffer (pH 7.4) supplemented with 100 mM KF to maintain ionic strength. Potassium salts of Cl— or Br— were added in indicated amounts. 1 hr reactions at 37° C. were initiated by addition of H2O2 to 1 mM and stopped by freezing at −20° C. […] Reagent KCl was commercially obtained and unaltered prior to analysis. 100 mM solutions were made with 18MΩ deionized water. (FIG. 8C) Coomassie blue stained gel of collagenase digested PFHR-9 matrix reaction assay. Reaction buffered contained 10 mM phosphate buffer (pH 7.4), 100 mM Br-Free or Commercially obtained reagent grade KCl, as well as 1 mM H2O2 and 200 μM PHG where appropriate. […] Reactions were run for 10 minutes at 37° C. with 10 μM H2O2 as the terminal oxidant. Dose-response curve run in the presence of 1× Br-Free PBS. Reactions were quenched with 0.2 mg/ml Catalase, 20 mM Methionine, and 1 mM PHG. EC50 value±95% C.I. from two independent experiments with each data point plotted and fit.
(§2) HEK293 cells stably transfected with the human peroxidasin coding sequence27 were grown to confluency, and the medium was changed to serum-free DMEM/F12 plus 5 μM hematin plus 5 mM sodium butyrate. […]

collagen IV = conditions: in vivo
Procedure: Data plotted as the group median±interquartile range. N=30 for each group. […] (FIG. 17F) Western blot of isolated NC1 domain from larvae treated as in (E), probed with an anti-Drosophila NC1 polyclonal antibody (Extended Experimental Methods). Associated larval Br-content was measured by EINAA. Bonds/hexamer were calculated from the Western blot.
In Br-free^DEP conditions, the inventors assessed the impact of Br-deficiency on crosslink formation in vivo. The inventors used vkg^454-GFP flies in which the single collagen IV α2 gene locus contains a GFP insertion near the 7S domain. vkg^454-GFP flies were grown on Br-free^DEP, Br-added^DEP and standard diets and biochemically assayed sulfilamine-bond content via immunoblot.

human peroxidasin [2] = molecular target: T1, human peroxidasin; experiment: biochemical
Procedure: as §1, §2

T1 sequence (Q92626 27-1479): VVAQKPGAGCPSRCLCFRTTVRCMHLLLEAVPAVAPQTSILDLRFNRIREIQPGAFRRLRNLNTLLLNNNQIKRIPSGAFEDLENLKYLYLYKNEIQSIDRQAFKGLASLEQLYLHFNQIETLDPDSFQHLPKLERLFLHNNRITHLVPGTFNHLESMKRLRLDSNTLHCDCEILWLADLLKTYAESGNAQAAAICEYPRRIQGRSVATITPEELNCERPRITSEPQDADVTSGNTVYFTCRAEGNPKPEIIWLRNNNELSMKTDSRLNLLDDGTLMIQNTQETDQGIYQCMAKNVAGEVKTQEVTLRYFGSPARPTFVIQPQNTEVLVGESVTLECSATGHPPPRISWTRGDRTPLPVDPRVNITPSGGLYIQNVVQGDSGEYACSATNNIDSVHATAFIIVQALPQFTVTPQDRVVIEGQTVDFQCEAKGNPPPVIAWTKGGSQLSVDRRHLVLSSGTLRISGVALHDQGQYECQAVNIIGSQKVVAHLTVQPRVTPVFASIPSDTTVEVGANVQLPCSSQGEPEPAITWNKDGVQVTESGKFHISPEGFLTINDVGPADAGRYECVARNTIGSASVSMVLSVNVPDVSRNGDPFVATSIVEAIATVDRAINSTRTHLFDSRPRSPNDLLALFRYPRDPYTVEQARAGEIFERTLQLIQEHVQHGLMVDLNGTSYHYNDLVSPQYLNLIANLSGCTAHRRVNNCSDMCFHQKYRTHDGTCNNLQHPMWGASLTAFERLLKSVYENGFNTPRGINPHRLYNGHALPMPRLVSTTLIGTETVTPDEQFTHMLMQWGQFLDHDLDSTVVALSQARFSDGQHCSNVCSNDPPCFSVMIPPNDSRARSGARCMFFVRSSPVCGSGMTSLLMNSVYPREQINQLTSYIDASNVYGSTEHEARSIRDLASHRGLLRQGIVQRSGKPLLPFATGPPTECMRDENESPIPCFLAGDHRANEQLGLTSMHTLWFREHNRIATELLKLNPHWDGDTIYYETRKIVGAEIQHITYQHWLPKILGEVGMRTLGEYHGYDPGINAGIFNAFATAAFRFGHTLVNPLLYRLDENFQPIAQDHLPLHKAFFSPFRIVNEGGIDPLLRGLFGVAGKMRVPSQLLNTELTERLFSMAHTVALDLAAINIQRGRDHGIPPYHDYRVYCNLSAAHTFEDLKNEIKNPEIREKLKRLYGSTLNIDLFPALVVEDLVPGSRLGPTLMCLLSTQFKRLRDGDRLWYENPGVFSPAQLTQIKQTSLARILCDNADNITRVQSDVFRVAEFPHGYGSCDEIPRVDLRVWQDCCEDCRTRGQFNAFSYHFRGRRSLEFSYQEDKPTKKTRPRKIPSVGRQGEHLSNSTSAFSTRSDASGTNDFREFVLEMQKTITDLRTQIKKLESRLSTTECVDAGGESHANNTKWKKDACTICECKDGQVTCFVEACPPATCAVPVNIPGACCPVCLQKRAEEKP

Br [bromide]
S═N bond formation on Br addition to Br-Free PBS (human peroxidasin [1]): recued the degree of S═N bond formation observed in reagent-grade PBS
sulfilimine-bond content in larvae (collagen IV): rescued
EC50 (human peroxidasin [2]): 2700 nM
